Reference: publication PMC9329436, “Optimization of the 4-anilinoquin(az)oline scaffold as epidermal growth factor receptor (EGFR) inhibitors for chordoma utilizing a toxicology profiling assay platform” (Scientific Reports, 2022)
Read-outs that look alike come from different tables or passages of the source.

Tests used:
Format in all cases: biochemical
[1] = biological target: T1, 320 wild-type protein kinases (Homo sapiens, UniProt P42679); settings: MATK, singlicate
T1 sequence (P42679 1-507): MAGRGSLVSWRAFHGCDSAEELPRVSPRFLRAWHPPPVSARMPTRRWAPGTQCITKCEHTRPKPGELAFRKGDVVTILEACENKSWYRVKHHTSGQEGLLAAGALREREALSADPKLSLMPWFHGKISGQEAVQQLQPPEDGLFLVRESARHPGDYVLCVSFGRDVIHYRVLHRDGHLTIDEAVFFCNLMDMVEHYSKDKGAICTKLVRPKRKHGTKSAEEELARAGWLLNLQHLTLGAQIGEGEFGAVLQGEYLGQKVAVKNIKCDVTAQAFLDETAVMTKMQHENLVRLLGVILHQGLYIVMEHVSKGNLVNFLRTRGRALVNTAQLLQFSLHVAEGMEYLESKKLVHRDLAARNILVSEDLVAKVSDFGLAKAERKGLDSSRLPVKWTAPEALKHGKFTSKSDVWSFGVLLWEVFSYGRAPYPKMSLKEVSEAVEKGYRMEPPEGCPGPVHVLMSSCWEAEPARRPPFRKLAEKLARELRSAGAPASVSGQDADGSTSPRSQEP
Text: (§1) Table S4. Profiling of two compounds at two concentrations against 320 wild-type protein kinases; singlicate measurement; Residual activities (% of control).

[2] = biological target: T2, 320 wild-type protein kinases (Homo sapiens, UniProt Q96KB5); settings: PBK, singlicate
T2 sequence (Q96KB5 1-322): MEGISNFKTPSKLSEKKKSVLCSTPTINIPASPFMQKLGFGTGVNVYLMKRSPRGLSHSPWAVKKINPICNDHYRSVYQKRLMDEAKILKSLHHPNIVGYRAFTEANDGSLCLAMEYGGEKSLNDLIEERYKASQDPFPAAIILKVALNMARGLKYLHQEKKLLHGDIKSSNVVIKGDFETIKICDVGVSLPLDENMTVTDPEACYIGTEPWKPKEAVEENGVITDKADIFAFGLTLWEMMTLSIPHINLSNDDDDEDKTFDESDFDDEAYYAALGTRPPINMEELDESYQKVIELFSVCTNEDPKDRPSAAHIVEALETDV
Text: as §1

[3] = biological target: 320 wild-type protein kinases (Homo sapiens, UniProt Q9H0K1); settings: kinase SIK2, singlicate
Text: as §1

[4] = biological target: 320 wild-type protein kinases (Homo sapiens, UniProt Q9HAZ1); settings: singlicate
Text: as §1

[5] = biological target: T3, 320 wild-type protein kinases (Homo sapiens, UniProt P54760); settings: singlicate
T3 sequence (P54760 16-987): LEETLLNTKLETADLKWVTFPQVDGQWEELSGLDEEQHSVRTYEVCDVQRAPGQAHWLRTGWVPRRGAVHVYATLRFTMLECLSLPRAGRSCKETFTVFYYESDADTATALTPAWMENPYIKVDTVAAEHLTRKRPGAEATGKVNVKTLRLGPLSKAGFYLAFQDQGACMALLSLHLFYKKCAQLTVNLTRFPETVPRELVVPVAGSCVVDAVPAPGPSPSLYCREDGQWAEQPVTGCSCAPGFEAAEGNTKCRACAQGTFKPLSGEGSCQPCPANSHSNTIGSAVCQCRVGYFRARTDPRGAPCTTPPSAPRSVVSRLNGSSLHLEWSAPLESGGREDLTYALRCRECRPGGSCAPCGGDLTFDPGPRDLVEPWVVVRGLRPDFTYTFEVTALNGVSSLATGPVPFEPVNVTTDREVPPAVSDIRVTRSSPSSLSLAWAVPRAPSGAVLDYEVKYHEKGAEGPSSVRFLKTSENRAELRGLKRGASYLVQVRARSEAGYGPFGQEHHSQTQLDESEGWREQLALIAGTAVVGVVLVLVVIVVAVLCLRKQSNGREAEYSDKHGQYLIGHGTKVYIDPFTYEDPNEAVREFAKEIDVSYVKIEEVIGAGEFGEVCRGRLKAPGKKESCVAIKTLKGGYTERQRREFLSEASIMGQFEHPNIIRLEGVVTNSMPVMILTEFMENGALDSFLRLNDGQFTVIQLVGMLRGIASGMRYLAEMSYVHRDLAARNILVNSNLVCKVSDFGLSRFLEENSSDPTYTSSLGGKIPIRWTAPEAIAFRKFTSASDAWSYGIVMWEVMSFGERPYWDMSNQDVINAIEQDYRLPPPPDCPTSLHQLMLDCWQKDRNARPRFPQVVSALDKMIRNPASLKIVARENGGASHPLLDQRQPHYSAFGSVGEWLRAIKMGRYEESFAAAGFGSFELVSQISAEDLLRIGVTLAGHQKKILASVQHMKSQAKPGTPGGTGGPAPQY
Text: as §1

Sequence of 320 wild-type protein kinases (Homo sapiens, UniProt Q9HAZ1) (Q9HAZ1 whole entry): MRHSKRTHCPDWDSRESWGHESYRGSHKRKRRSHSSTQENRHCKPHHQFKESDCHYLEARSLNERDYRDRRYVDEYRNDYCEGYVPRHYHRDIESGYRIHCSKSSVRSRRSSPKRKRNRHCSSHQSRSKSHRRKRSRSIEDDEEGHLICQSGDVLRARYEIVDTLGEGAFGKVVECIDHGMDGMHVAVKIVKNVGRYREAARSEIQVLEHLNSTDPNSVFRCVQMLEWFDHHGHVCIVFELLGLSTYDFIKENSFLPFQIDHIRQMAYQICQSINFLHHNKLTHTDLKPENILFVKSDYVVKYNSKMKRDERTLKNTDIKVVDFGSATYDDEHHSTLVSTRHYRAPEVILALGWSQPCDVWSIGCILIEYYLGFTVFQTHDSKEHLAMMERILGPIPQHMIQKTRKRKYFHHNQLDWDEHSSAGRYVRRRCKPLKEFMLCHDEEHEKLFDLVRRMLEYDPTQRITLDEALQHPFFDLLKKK
Sequence of 320 wild-type protein kinases (Homo sapiens, UniProt Q9H0K1) (Q9H0K1 whole entry): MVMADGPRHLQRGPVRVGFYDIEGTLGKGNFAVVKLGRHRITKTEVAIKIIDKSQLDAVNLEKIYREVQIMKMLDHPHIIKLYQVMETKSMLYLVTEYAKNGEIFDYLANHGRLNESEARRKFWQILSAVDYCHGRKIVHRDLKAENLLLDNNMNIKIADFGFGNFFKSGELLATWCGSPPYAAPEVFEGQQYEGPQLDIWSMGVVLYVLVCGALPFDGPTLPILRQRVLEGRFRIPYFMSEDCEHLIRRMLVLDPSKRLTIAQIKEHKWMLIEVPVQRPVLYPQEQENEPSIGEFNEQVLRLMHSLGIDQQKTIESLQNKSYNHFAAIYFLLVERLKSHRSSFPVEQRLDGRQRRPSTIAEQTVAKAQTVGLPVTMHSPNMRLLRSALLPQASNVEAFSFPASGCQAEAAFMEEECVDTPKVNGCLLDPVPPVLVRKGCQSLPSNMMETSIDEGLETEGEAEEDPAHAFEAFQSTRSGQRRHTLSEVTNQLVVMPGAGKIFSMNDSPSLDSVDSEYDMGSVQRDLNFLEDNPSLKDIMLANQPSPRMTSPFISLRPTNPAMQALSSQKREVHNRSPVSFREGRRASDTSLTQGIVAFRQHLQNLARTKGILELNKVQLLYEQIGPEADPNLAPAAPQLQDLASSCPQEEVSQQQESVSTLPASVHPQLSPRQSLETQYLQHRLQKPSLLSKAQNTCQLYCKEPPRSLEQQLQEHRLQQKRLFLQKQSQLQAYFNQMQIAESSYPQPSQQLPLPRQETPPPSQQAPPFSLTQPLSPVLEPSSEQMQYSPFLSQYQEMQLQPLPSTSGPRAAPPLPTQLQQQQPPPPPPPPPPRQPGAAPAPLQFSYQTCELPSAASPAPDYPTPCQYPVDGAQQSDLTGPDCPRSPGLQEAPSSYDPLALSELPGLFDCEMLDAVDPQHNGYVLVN

C#Cc1cc(Nc2ncnc3cc(I)ccc23)ccc1Cl [Compound 41]
Residual activity ([1]; 1.0E-06 M): 95 % of control
Residual activity ([1]; 1.0E-07 M): 100 % of control
Residual activity ([2]; 1.0E-06 M): 110 % of control
Residual activity ([2]; 1.0E-07 M): 98 % of control
Residual activity, SIK2 ([3]; assay conc. 1.0E-06 M): 83 % of control
Residual activity, SIK2 ([3]; assay conc. 1.0E-07 M): 92 % of control
Residual activity ([4]; CLK4, 1.0E-06 M): 112 % of control
Residual activity ([4]; CLK4, 1.0E-07 M): 111 % of control
Residual activity ([5]; EPHB4, 1.0E-06 M): 92 % of control
Residual activity ([5]; EPHB4, 1.0E-07 M): 89 % of control

C#Cc1cc(Nc2ncnc3cc(OC)c(OC)cc23)ccc1Cl [Compound 45]
Residual activity ([1]; 1.0E-06 M): 95 % of control
Residual activity ([1]; 1.0E-07 M): 108 % of control
Residual activity ([2]; 1.0E-06 M): 80 % of control
Residual activity ([2]; 1.0E-07 M): 91 % of control
Residual activity, SIK2 ([3]; assay conc. 1.0E-06 M): 67 % of control
Residual activity, SIK2 ([3]; assay conc. 1.0E-07 M): 97 % of control
Residual activity ([4]; CLK4, 1.0E-06 M): 69 % of control
Residual activity ([4]; CLK4, 1.0E-07 M): 100 % of control
Residual activity ([5]; EPHB4, 1.0E-06 M): 82 % of control
Residual activity ([5]; EPHB4, 1.0E-07 M): 101 % of control
